Like-named read-outs stand apart in the source and are kept apart here.
Legend:
[1] = tested on: HLA-A*24:02-restricted CD8+ T cells; format: cell-based, human
HLA-A*24:02 = HLA-A*24:02 (Homo sapiens, UniProt P04439, D101N/D140Y/D185E/E176V/E190D/F33S/G103R/G107R/I119L/I121M/I306V/K335N/L105A/L180Q/L300P/N151K/N90K/Q86E/Q94H/R106L/R138H/R89G/T104I/T345S/V100E/W191G/Y123F); assay: HLA stabilization assay using RMA-S-A2402 cells; format: binding; conditions: for MFI, HLA-A2402 (APC), representative staining: RMA-S-A2402 cells, Suppl. Fig. 3b (for Fig. 4a, 4b), peptide(-) 14.8, 26 °C (Maximum) 32.7; for binding to HLA-A*24:02 (in words): 16 peptides tested at 100 μM
[2] = convalescent donor C2, 45.290 weeks since PCR-confirmed diagnosis, […], peptide-pulsed C1R-A2402
[3] = convalescent donor C3, 2.430 weeks since PCR-confirmed diagnosis, […], peptide-pulsed C1R-A2402
[4] = convalescent donor C4, 35.000 weeks since PCR-confirmed diagnosis, […], peptide-pulsed C1R-A2402
[5] = convalescent donor C5, 41.430 weeks since PCR-confirmed diagnosis, […], peptide-pulsed C1R-A2402
[6] = convalescent donor C6, 20.000 weeks since PCR-confirmed diagnosis, […], peptide-pulsed C1R-A2402
[7] = convalescent donor C7, 21.710 weeks since PCR-confirmed diagnosis, […], peptide-pulsed C1R-A2402
[8] = convalescent donor C8, 47.860 weeks since PCR-confirmed diagnosis, […], peptide-pulsed C1R-A2402
[9] = convalescent donor C9, 21.860 weeks since PCR-confirmed diagnosis, […], peptide-pulsed C1R-A2402
[10] = convalescent donor C10, 24.570 weeks since PCR-confirmed diagnosis, […], peptide-pulsed C1R-A2402
[11] = convalescent donor C11, 24.290 weeks since PCR-confirmed diagnosis, […], peptide-pulsed C1R-A2402
[12] = vaccinated donor V1, 19.000 weeks since 2nd dose, […], C1R-A2402 pre-pulsed with 1 μM peptide
[13] = vaccinated donor V2, 9.570 weeks since 2nd dose, […], C1R-A2402 pre-pulsed with 1 μM peptide
[14] = vaccinated donor V3, 8.860 weeks since 2nd dose, […], C1R-A2402 pre-pulsed with 1 μM peptide
[15] = vaccinated donor V4, 10.430 weeks since 2nd dose, […], C1R-A2402 pre-pulsed with 1 μM peptide
[16] = vaccinated donor V5, 10.570 weeks since 2nd dose, […], C1R-A2402 pre-pulsed with 1 μM peptide
[17] = vaccinated donor V6, 9.570 weeks since 2nd dose, […], C1R-A2402 pre-pulsed with 1 μM peptide
[18] = vaccinated donor V7, 10.140 weeks since 2nd dose, […], C1R-A2402 pre-pulsed with 1 μM peptide
[19] = vaccinated donor V8, 9.860 weeks since 2nd dose, […], C1R-A2402 pre-pulsed with 1 μM peptide
[20] = vaccinated donor V9, 20.570 weeks since 2nd dose, […], C1R-A2402 pre-pulsed with 1 μM peptide
[21] = vaccinated donor V10, 2.000 weeks since 2nd dose, […], C1R-A2402 pre-pulsed with 1 μM peptide
[22] = vaccinated donor V11, 1.430 weeks since 2nd dose, […], C1R-A2402 pre-pulsed with 1 μM peptide
[23] = vaccinated donor V12, 1.000 weeks since 2nd dose, […], C1R-A2402 pre-pulsed with 1 μM peptide
[24] = vaccinated donor V13, 9.000 weeks since 2nd dose, […], C1R-A2402 pre-pulsed with 1 μM peptide
[25] = vaccinated donor V14, 2.000 weeks since 2nd dose, […], C1R-A2402 pre-pulsed with 1 μM peptide
[26] = vaccinated donor V15, 6.860 weeks since 2nd dose, […], C1R-A2402 pre-pulsed with 1 μM peptide
[27] = vaccinated donor V16, 8.860 weeks since 2nd dose, […], C1R-A2402 pre-pulsed with 1 μM peptide
[28] = vaccinated donor V17, 4.140 weeks since 2nd dose, […], C1R-A2402 pre-pulsed with 1 μM peptide

| Sequence | IFNg-producing cells among CD8 T cells (%) [1, 2] | IFNg-producing cells among CD8 T cells (%) [1, 3] | IFNg-producing cells among CD8 T cells (%) [1, 4] | IFNg-producing cells among CD8 T cells (%) [1, 5] | IFNg-producing cells among CD8 T cells (%) [1, 6] | IFNg-producing cells among CD8 T cells (%) [1, 7] | IFNg-producing cells among CD8 T cells (%) [1, 8] | IFNg-producing cells among CD8 T cells (%) [1, 9] | IFNg-producing cells among CD8 T cells (%) [1, 10] | IFNg-producing cells among CD8 T cells (%) [1, 11] | IFNg-producing cells among CD8 T cells (%) [1, 12] | IFNg-producing cells among CD8 T cells (%) [1, 13] | IFNg-producing cells among CD8 T cells (%) [1, 15] | IFNg-producing cells among CD8 T cells (%) [1, 16] | IFNg-producing cells among CD8 T cells (%) [1, 17] | IFNg-producing cells among CD8 T cells (%) [1, 18] | IFNg-producing cells among CD8 T cells (%) [1, 19] | IFNg-producing cells among CD8 T cells (%) [1, 20] | IFNg-producing cells among CD8 T cells (%) [1, 21] | IFNg-producing cells among CD8 T cells (%) [1, 22] | other results |
| --- | --- | --- | --- | --- | --- | --- | --- | --- | --- | --- | --- | --- | --- | --- | --- | --- | --- | --- | --- | --- | --- |
| YYHKNNKSW [S-YW9] | 0.653% | 0.000% | 0.000% | 0.000% | 0.000% | 0.140% | 0.310% | 0.000% | 0.000% | 0.550% | 0.268% | 0% | 0% | 0.139% | 0.061% | 0.182% | 0.035% | 0.232% | 0% | 0.769% | IFNg-producing cells among CD8 T cells (%) [1, 14]: 0.343%; IFNg-producing cells among CD8 T cells (%) [1, 23]: 0%; IFNg-producing cells among CD8 T cells (%) [1, 24]: 0%; IFNg-producing cells among CD8 T cells (%) [1, 25]: 0%; IFNg-producing cells among CD8 T cells (%) [1, 26]: 0.709%; IFNg-producing cells among CD8 T cells (%) [1, 27]: 0.019%; IFNg-producing cells among CD8 T cells (%) [1, 28]: 0.154%; MFI, HLA-A2402 (APC), representative staining (HLA-A*24:02): 10.2; binding to HLA-A*24:02 (in words) (HLA-A*24:02): did not bind |
| IYQTSNFRV [S-IV9] | 0.000% | 0.090% | 0.000% | 0.000% | 0.340% | 0.260% | 0.060% | 0.000% | 0.160% | 0.000% | 0% | 0.595% | 0% | 0% | 0.265% | 0% | 0% | 0% | 0% | 0.241% | IFNg-producing cells among CD8 T cells (%) [1, 14]: 0.717%; IFNg-producing cells among CD8 T cells (%) [1, 23]: 0%; IFNg-producing cells among CD8 T cells (%) [1, 24]: 0%; IFNg-producing cells among CD8 T cells (%) [1, 25]: 0%; IFNg-producing cells among CD8 T cells (%) [1, 26]: 0.005%; IFNg-producing cells among CD8 T cells (%) [1, 27]: 0.261%; IFNg-producing cells among CD8 T cells (%) [1, 28]: 0%; MFI, HLA-A2402 (APC), representative staining (HLA-A*24:02): 33.2 |
| RFDNPVLPF [S-RF9] | 0.770% | 0.050% | 1.110% | 0.000% | 0.000% | 0.000% | 0.000% | 0.000% | 0.000% | 0.000% | 0% | 0.296% | 0.333% | 0.15% | 0% | 0% | 0% | 0.769% | 0% | 0% | IFNg-producing cells among CD8 T cells (%) [1, 23]: 0.495%; IFNg-producing cells among CD8 T cells (%) [1, 24]: 0.076%; IFNg-producing cells among CD8 T cells (%) [1, 25]: 0.633%; IFNg-producing cells among CD8 T cells (%) [1, 26]: 0%; IFNg-producing cells among CD8 T cells (%) [1, 27]: 0.051%; IFNg-producing cells among CD8 T cells (%) [1, 28]: 0%; MFI, HLA-A2402 (APC), representative staining (HLA-A*24:02): 10.5; binding to HLA-A*24:02 (in words) (HLA-A*24:02): did not bind |
| EYVSQPFLM [S-EM9] | 0.455% | 0.097% | 0.355% | 0.063% | 0.000% | 0.160% | 0.480% | 0.000% | 0.650% | 0.000% | 0.75% | 0.88% | 0% | 0.271% | 0.032% | 0% | 0% | 0% | 0.23% | 0.827% | IFNg-producing cells among CD8 T cells (%) [1, 14]: 0.063%; IFNg-producing cells among CD8 T cells (%) [1, 23]: 0%; IFNg-producing cells among CD8 T cells (%) [1, 24]: 0.062%; IFNg-producing cells among CD8 T cells (%) [1, 25]: 0%; IFNg-producing cells among CD8 T cells (%) [1, 26]: 0%; IFNg-producing cells among CD8 T cells (%) [1, 27]: 0.187%; IFNg-producing cells among CD8 T cells (%) [1, 28]: 0%; MFI, HLA-A2402 (APC), representative staining (HLA-A*24:02): 38.7 |
| GYLQPRTFLL [S-GL10] | 0.450% | 0.140% | 1.440% | 0.000% | 0.260% | 0.000% | 0.120% | 0.130% | 0.000% | 0.000% | 0% | 0% | 0.245% | 0.041% | 0% | 0% | 0.018% | 0.481% | 0.057% | 0.244% | Freq of responder (%) ([1]; of 17 vaccinated HLA-A*24:02+ individuals (Fig. 4b)): 5.9%; Resp: number of responders (individuals with epitope-specific CD8+ T cells) ([1]; of 17 vaccinated HLA-A*24:02+ individuals, […], 1 μM peptide): one; IFNg-producing cells among CD8 T cells (%) [1, 14]: 0.487%; IFNg-producing cells among CD8 T cells (%) [1, 23]: 1.194%; IFNg-producing cells among CD8 T cells (%) [1, 24]: 0%; IFNg-producing cells among CD8 T cells (%) [1, 25]: 0.774%; IFNg-producing cells among CD8 T cells (%) [1, 26]: 0.234%; IFNg-producing cells among CD8 T cells (%) [1, 27]: 0%; IFNg-producing cells among CD8 T cells (%) [1, 28]: 0%; MFI, HLA-A2402 (APC), representative staining (HLA-A*24:02): 15.2 |
